The record followed here is PubChem BioAssay (NCI).

Some test systems named below: DU-145 prostate; HS 578T breast; T-47D breast; NCI-H460 lung; UACC-62 melanoma; HCC-2998 colon; A549 NSCLC; EKVX NSCLC.
Common to all, as to experiment: inhibition of tumour cell growth, NCI panel, 48 h

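Following 48 hours of exposure in 96-well plates, responses at five concentrations were used to interpolate endpoints linearly. Here, GI50 denotes the concentration required for 50% inhibition of growth. Definition used: TGI = concentration required for complete inhibition of growth.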

For the molecule `Nc1c(C(=O)c2cccc(OCCN3CCOCC3)c2)cnn1-c1ccc(F)cc1`, the GI50 with DU-145 prostate is > 25 µM; in the assay on HS 578T breast, > 25 µM; in the assay on T-47D breast, > 23.7 µM; in the assay on NCI-H460 lung it was > 25 µM; in the assay with UACC-62 melanoma, > 25 µM; in the assay on HCC-2998 colon, > 25 µM. Also, the GI50 in the assay on A549 NSCLC was > 25 µM. Moreover, the TGI in the assay on DU-145 prostate, with HS 578T breast, in the assay on T-47D breast, with NCI-H460 lung, with UACC-62 melanoma and in the assay on HCC-2998 colon was > 25 µM each time. In addition, in the assay with A549 NSCLC, the TGI was > 25 µM.

In the case of `O=C1/C(=C/c2ccccc2)SC(=Nc2ccccc2)N1Nc1ccccc1`, the GI50 in the assay with DU-145 prostate was 32.2 µM; in the assay with HS 578T breast, 29 µM; in the assay on T-47D breast, 5.41 µM; in the assay with NCI-H460 lung it was 15.9 µM; in the assay on UACC-62 melanoma, 10.3 µM; with HCC-2998 colon, 20 µM. For the same molecule, the figures for the GI50 in the assay with EKVX NSCLC and with A549 NSCLC were 7.28 µM and 12 µM, respectively. Moreover, the TGI with DU-145 prostate is > 100 µM; in the assay on HS 578T breast it was > 100 µM; with T-47D breast, > 100 µM; with NCI-H460 lung, 57.3 µM; in the assay on UACC-62 melanoma, 39.4 µM; with HCC-2998 colon it was > 100 µM. Also, the TGI with EKVX NSCLC and in the assay on A549 NSCLC was > 100 µM each time.

As to `C=C1C(=O)O[C@H]2[C@H]1CC/C(COC(=O)C(=O)c1c[nH]c3ccc(OC)cc13)=C\CC[C@@]1(C)O[C@@H]21`, the GI50 in the assay on DU-145 prostate was 7.99 µM; in the assay on HS 578T breast, 10.1 µM; in the assay with T-47D breast it was 6.98 µM; in the assay on NCI-H460 lung it was 10.2 µM; with UACC-62 melanoma, 3.21 µM; with HCC-2998 colon it was 6.29 µM. The GI50 with EKVX NSCLC was 9.85 µM; in the assay on A549 NSCLC, 8.64 µM. The TGI in the assay on DU-145 prostate was 17 µM; in the assay with HS 578T breast, 40.2 µM; in the assay on T-47D breast, 12.4 µM; with NCI-H460 lung, 24.8 µM; in the assay with UACC-62 melanoma it was 7.49 µM; in the assay with HCC-2998 colon, 9.82 µM. Moreover, the TGI in the assay with EKVX NSCLC is 24.7 µM; in the assay on A549 NSCLC, 17.3 µM.

In the case of `CS(=O)(=O)N1CCN(Cc2cc3nc(-c4cccc5[nH]ncc45)nc(N4CCOCC4)c3s2)CC1` (tested in a mixture with another compound), the GI50 in the assay on DU-145 prostate was 0.0837 µM; in the assay on HS 578T breast it was 0.0496 µM; with T-47D breast it was 0.0207 µM; in the assay on NCI-H460 lung, 0.0796 µM; in the assay on UACC-62 melanoma, 0.105 µM; in the assay with HCC-2998 colon, 1.31 µM. For the same molecule, the GI50 was 0.087 µM in the assay with EKVX NSCLC and 0.0213 µM with A549 NSCLC. The TGI is 0.612 µM in the assay on HS 578T breast; 0.105 µM with T-47D breast; 0.706 µM with UACC-62 melanoma; > 100 µM with HCC-2998 colon; 0.0487 µM in the assay with A549 NSCLC.

For `Cc1cc(=O)oc2cc(OC(=O)Nc3ccc(Cl)c(Cl)c3)ccc12`, the TGI in the assay on DU-145 prostate came to 90.5 µM; in the assay with HS 578T breast, 66.4 µM; in the assay on T-47D breast, 68.3 µM; in the assay with NCI-H460 lung, 89.6 µM; with UACC-62 melanoma, 35.1 µM; in the assay with HCC-2998 colon it was 41 µM. Further, the figures for the TGI with EKVX NSCLC and in the assay on A549 NSCLC were 85.2 µM and 82.1 µM, respectively.

Turning to `COc1ccc(-c2cnc(-c3ccc(F)cc3)[nH]2)cc1`, the GI50 with DU-145 prostate was 2.59 µM; in the assay with HS 578T breast, 2.14 µM; in the assay on T-47D breast, 8.39 µM; with NCI-H460 lung, 8.37 µM; in the assay with UACC-62 melanoma it was 19.4 µM; in the assay on HCC-2998 colon, 7.4 µM. Also, the values for the GI50 with EKVX NSCLC and with A549 NSCLC were 5.9 µM and 5.8 µM, respectively. The TGI in the assay with DU-145 prostate is 7.59 µM; in the assay with HS 578T breast, 11.2 µM; with T-47D breast, 36.4 µM; in the assay on NCI-H460 lung, 29.6 µM; in the assay on UACC-62 melanoma, > 50 µM; with HCC-2998 colon, 25.1 µM. For the same molecule, the figures for the TGI with EKVX NSCLC and in the assay on A549 NSCLC were 18.5 µM and 16.1 µM, respectively.

`C=C(CN1CCN(c2cccc(C(F)(F)F)c2)CC1)c1ccc(C(=O)Nc2ccccc2N)cc1`: the GI50 is 1.36 µM in the assay with DU-145 prostate; 0.491 µM with HS 578T breast; 13.2 µM with T-47D breast; 1.56 µM in the assay on NCI-H460 lung; 0.409 µM in the assay with UACC-62 melanoma; 2.92 µM in the assay on EKVX NSCLC. Also, the GI50 in the assay with A549 NSCLC is 1.48 µM. Further, the TGI in the assay on DU-145 prostate was 7.23 µM; in the assay on HS 578T breast, > 36.3 µM; in the assay with T-47D breast it was > 50 µM; with NCI-H460 lung it was > 24.8 µM; in the assay with UACC-62 melanoma, 4.89 µM; in the assay on EKVX NSCLC, 19.4 µM. Also, the TGI in the assay on A549 NSCLC was > 27.3 µM.

For the molecule `C=C(CNCCc1ccc(O)cc1)[C@@H]1CC[C@]2(CO)CC[C@]3(C)[C@H](CC[C@@H]4[C@@]5(C)CCC(=O)C(C)(C)[C@@H]5CC[C@]43C)[C@@H]12`, the GI50 with DU-145 prostate was 1.77 µM; with T-47D breast, 1.72 µM; in the assay on NCI-H460 lung, 1.66 µM; with UACC-62 melanoma, 1.69 µM; in the assay on HCC-2998 colon it was 1.64 µM; in the assay on EKVX NSCLC, 1.7 µM. For the same molecule, in the assay with A549 NSCLC, the GI50 is 1.63 µM. Further, the TGI in the assay on DU-145 prostate was determined as 3.15 µM; with T-47D breast, 4 µM; in the assay with NCI-H460 lung, 3.28 µM; with UACC-62 melanoma, 3.09 µM; in the assay with HCC-2998 colon, 3.06 µM; in the assay on EKVX NSCLC, 3.24 µM. In the assay with A549 NSCLC, the TGI stood at 2.99 µM.

Take `COc1cc(NN=C(c2ccc(O)cc2)c2ccc(O)cc2)c([N+](=O)[O-])cc1[N+](=O)[O-]`: the GI50 in the assay on DU-145 prostate was 12.8 µM; with T-47D breast, 1.62 µM; with NCI-H460 lung, 3.76 µM; with UACC-62 melanoma, 10.6 µM; in the assay on HCC-2998 colon it was 14.8 µM; with EKVX NSCLC, 14.4 µM. Besides, in the assay with A549 NSCLC, the GI50 is 7.59 µM. The TGI with DU-145 prostate is 50.8 µM; in the assay with T-47D breast it was 19.2 µM; in the assay on NCI-H460 lung it was 21.2 µM; in the assay on UACC-62 melanoma, 22.6 µM; in the assay with HCC-2998 colon, 29.8 µM; in the assay on EKVX NSCLC it was 28.3 µM. In addition, the TGI with A549 NSCLC was 33.7 µM.

`COC(=O)c1c2c(c(C)[n+]([O-])c1C)C(=O)C=C(NCc1cccc(OC)c1)C2=O`: the GI50 in the assay on DU-145 prostate is 1.06 µM; in the assay with HS 578T breast, 1.64 µM; in the assay on T-47D breast it was 0.286 µM; with UACC-62 melanoma, 0.25 µM; in the assay on EKVX NSCLC, 1.01 µM. The TGI in the assay on DU-145 prostate was determined as 2.29 µM; in the assay on HS 578T breast it was 6.25 µM; in the assay on T-47D breast, 1.62 µM; with UACC-62 melanoma, 1.07 µM; in the assay with EKVX NSCLC, 2.26 µM.
